# Reference: patent US6140362A, “Method for inhibiting the growth of mammalian cells” (Rohm and Haas Company, priority 1997, dated 2000)
# Experiments:
# [1] = system: mouse lymphoma cell line L5178Y; assay: Growth inhibition of mouse lymphoma cells (L5178Y), 48 h; type: cell-based; conditions: 48 hours; for inhibition at 20 µM: 20 micromolar; for inhibition at 50 µM: 50 micromolar; for inhibition at 2 µM: 2 micromolar; for inhibition at 4 µM: 4 micromolar; for inhibition at 10 µM: 10 micromolar, read-out: Inhibition of growth
# Procedure: Effects of compounds on growth of mouse lymphoma cell line L5178Y, were determined as follows. Cells were grown in Fischer's medium (obtained from Life Technologies, Inc., Gaithersburg, Md.) containing 0.24 grams per liter (g/l) sodium pyruvate, 1.12 g/l surfactant (Pluronic F-68, from BASF Corporation, Parsippany, N.J.), and 10% by volume (10% v/v) heat-inactivated horse serum (obtained from Life Technologies, Inc) at 37° C. To 30 ml aliquots of cell suspension (2×10^4 cells per milliliter (mL)) in exponential growth phase were added test compounds dissolved in dimethylsulfoxide (DMSO) at various concentrations such that the final DMSO concentration in the mixtures was 0.25%. Tubes were gassed with 5% CO2 then incubated on a roller drum apparatus. After 48 hours the cells were treated with 0.1% trypsin (Life Technologies, Inc.,) for 10 minutes and counted in a Coulter Counter equipped with a 140 micrometer (μM) aperture. Percent inhibition of growth was calculated by comparing the number of cells in assays containing test compound with the number of cells in controls lacking the test compound.
# tubulin = assay: Inhibition of microtubule assembly; type: biochemical, calf; conditions: preincubated 1 h at 37° C.
# Procedure: Compounds were evaluated for their ability to inhibit tubulin assembly into microtubules by comparing the extent of cold-reversible assembly in the presence of each test compound with controls lacking the test compound. Tubulin was isolated from calf brain tissue by two cycles of assembly/disassembly as described by Vallee, R. B. in Methods in Enzymology, vol. 134, pp. 89-104. Assay mixtures contained 1 mg/ml of purified tubulin in 1 M sodium glutamate, pH 6.6, 1 millimolar (mM) MgCl2, and the test compound, which was added as a solution in DMSO. The final concentration of DMSO in each assay was 2% (v/v). Assay mixtures were preincubated at 37° C. for 1 h, then chilled on ice for 5 min. Microtubule assembly was initiated by addition of guanosine triphosphate (0.1 mM), and incubation at 37° C. Assembly was followed turbidimetrically at 350 nm for 20 minutes (min) using a temperature-controlled cell in a Cary 2200 spectrophotometer. Since microtubules undergo depolymerization at 0° C., assembly was confirmed by measuring the reduction in turbidity following incubation for 30 min at 0° C. The difference in absorbance before and after incubation for 30 min at 0° C. (ΔA350) represents the extent of microtubule assembly. Inhibition of assembly was calculated by subtracting the (ΔA350) values for treatments with test compounds from the (ΔA350) for controls without test compound, and expressing this difference as a percentage of the (ΔA350) value for the control. Results including test compound number, test compound concentration in micromoles per liter (μM) and percent inhibition are set forth in Table 11.
compound,measurement,setting,value
CCC(C)(NC(=O)c1cc(F)cc(F)c1)C(=O)CCl (stereo not drawn) [Compound 34],inhibition at 20 µM,[1],88%
CCC(C)(NC(=O)c1cccc(Cl)c1)C(=O)CCl (stereo not drawn) [Compound 35],inhibition at 20 µM,[1],95%
same,Percent inhibition of microtubule assembly,tubulin; 50 μM,17.9%
CCC(C)(NC(=O)c1ccccc1)C(=O)CCl (stereo not drawn) [Compound 36],inhibition at 50 µM,[1],91%
CCC(C)(NC(=O)c1cc(F)c(F)c(F)c1)C(=O)CCl (stereo not drawn) [Compound 37],inhibition at 50 µM,[1],96%
CC(C)C(C)(NC(=O)c1cc(Cl)cc(Cl)c1)C(=O)CCl (stereo not drawn) [Compound 38],inhibition at 50 µM,[1],66%
CC(C)(NC(=O)c1ccccc1)C(=O)CCl [Compound 39],inhibition at 50 µM,[1],96%
CC(C)(NC(=O)c1cc(Cl)cc(Cl)c1)C(=O)C(Cl)Cl [Compound 40],inhibition at 50 µM,[1],92%
CCC(C)(NC(=O)c1cc(Cl)cc(Br)c1)C(=O)C(Br)Br (stereo not drawn) [Compound 41],Percent inhibition of microtubule assembly,tubulin; 5 μM,76.0%
CC(C)(NC(=O)c1cc(Cl)nc(Cl)c1)C(=O)C(Br)Br [Compound 42],inhibition at 2 µM,[1],98%
CC(C)(NC(=O)c1cc(Cl)nc(Cl)c1)C(=O)CCl [Compound 43],inhibition at 4 µM,[1],92%
CCC(C)(NC(=O)c1cccnc1)C(=O)CCl (stereo not drawn) [Compound 45],inhibition at 50 µM,[1],36%
CCC(C)(NC(=O)c1ccc(Cl)nc1)C(=O)CCl (stereo not drawn) [Compound 46],inhibition at 50 µM,[1],84%
CC(C)(NC(=O)c1cc(Br)c(Br)s1)C(=O)CCl [Compound 47],inhibition at 20 µM,[1],96%
CCC(C)(NC(=O)c1ccc(C)s1)C(=O)CCl (stereo not drawn) [Compound 48],inhibition at 50 µM,[1],97%
CC(C)(NC(=O)c1cccs1)C(=O)C(Br)Br [Compound 49],inhibition at 2 µM,[1],97%
CCC(C)(NC(=O)c1ccc(Br)o1)C(=O)C(Br)Br (stereo not drawn) [Compound 50],inhibition at 10 µM,[1],95%
CC(C)(NC(=O)c1cccs1)C(=O)CCl [Compound 51],inhibition at 50 µM,[1],95%
CC(C)(NC(=O)c1cc(Cl)sc1Cl)C(=O)CCl [Compound 52],inhibition at 20 µM,[1],89%
CCC(C)(NC(=O)c1ccc2ncoc2c1)C(=O)CCl (stereo not drawn) [Compound 53],inhibition at 50 µM,[1],95%
CCC(C)(NC(=O)c1ccc2ocnc2c1)C(=O)CCl (stereo not drawn) [Compound 54],inhibition at 50 µM,[1],36%
CCC(C)(NC(=O)c1ccc2ncsc2c1)C(=O)CCl (stereo not drawn) [Compound 55],inhibition at 10 µM,[1],97%
CCC(C)(NC(=O)c1cc(Cl)c2ncoc2c1)C(=O)CCl (stereo not drawn) [Compound 56],inhibition at 10 µM,[1],81%
CCC(C)(NC(=O)c1cc(Cl)c2nc(C)oc2c1)C(=O)CCl (stereo not drawn) [Compound 57],inhibition at 10 µM,[1],97%
CC(C)(NC(=O)C1CCCCC1)C(=O)CCl [Compound 58],inhibition at 50 µM,[1],77%
CC(C)(NC(=O)C(Cl)(Cl)Cl)C(=O)CCl [Compound 59],inhibition at 4 µM,[1],91%
CC(C)(NC(=O)C(Cl)(Cl)Cl)C(=O)C(Br)Br [Compound 60],inhibition at 2 µM,[1],98%
